# Assay results: US11865126B2, “Method for treating anxiety disorders, headache disorders, and eating disorders with psilocybin” (priority 2019, dated 2024)
# Test system: healthy subjects
# Assay: Phase 1 healthy volunteer study, single oral dose: treatment-emergent adverse events
# Assay type: in vivo, human
# Details: 25 mg
# Procedure: A Phase 1 randomized, double-blind, placebo-controlled study to evaluate the effect of psilocybin on cognitive and emotional processing as compared to placebo in healthy volunteers was conducted. The study investigated the short-term (Day 7) and long-term (Day 28) effects of moderate (10 mg) and high doses (25 mg) of psilocybin on key domains of cognition, such as episodic memory, attention, working and spatial memory, social cognition and elements of executive function, including cognitive flexibility.
# 90 healthy subjects were studied. Approximately 50% of the subjects were psilocybin-naïve. For subjects with prior psilocybin experience, the last exposure was at least 1 year prior to the signing of the Informed Consent Form (ICF). Approximately 50% of the subjects were female. Subjects were stratified by sex and age (18-35 years old; >35 years old).
# Each subject was assigned 1 treatment bottle containing 5 capsules packaged in a double-blind fashion, depending on the randomized treatment arm, the bottle contained one of the following: • a. Psilocybin 10 mg: 2×5-mg oral psilocybin capsules plus 3× placebo capsules • b. Psilocybin 25 mg: 5×5-mg oral psilocybin capsules • c. Placebo: 5× placebo capsules
# Each 5-mg oral psilocybin capsule comprised 5 mg crystalline psilocybin in the form of Polymorph A, 12.5 mg of SMCC 50, 79.5 mg of SMCC 90, 1 mg sodium starch glycolate, 1 mg colloidal silicon dioxide, and 1 mg sodium stearyl fumarate
# Adverse events: Throughout the course of the study, all AEs were monitored and recorded. Each AE was classified according to the following criteria: • i. […] Moderate: The AE produces some impairment of functioning, but is not hazardous to the subject's health. • iii. Severe: The AE produces significant impairment of functioning or incapacitation and is a definite hazard to the subject's health.
# Selected Adverse Events of included: • (a) Euphoric mood • (b) Dissociative disorder • (c) Hallucination • (d) Psychotic disorder • (e) Cognitive disorder • (f) Disturbance in attention • (g) Altered mood • (h) Impairment of psychomotor skills • (i) Inappropriate affect • (j) Overdose • (k) Intentional product misuse • (l) Illusion
# For example, drug-induced hepatitis that resolved without evidence of hepatic failure would not be considered life threatening even though drug-induced hepatitis can be fatal. • (c) Inpatient hospitalization or prolongation of existing hospitalization. • (d) Persistent or significant disability/incapacity. • (e) Congenital anomaly/birth defect in the offspring of a subject who received psilocybin. • (f) Other: Important medical events that may not result in death, be life-threatening, or require hospitalization, may be considered an SAE when, based upon appropriate medical judgment, they may jeopardize the subject and may require medical or surgical intervention to prevent one of the outcomes listed in this definition. […] Visits:
# Visit 3 (V3): Drug Administration (Day 0): The subject was asked to eat a light breakfast at least two hours prior to coming to the clinic for study drug administration. On Day 0 (V3), the subject underwent the SSTS, had vital signs obtained, medications reviewed, AEs recorded and eligibility reviewed prior to being randomized to study drug. The study drug was administered to up to six subjects simultaneously in individual beds separated by a curtain. The subject was invited to put on eyeshades and headphones, lie down and listen to calming music for the rest of the session (six hours). The subject was supported 1:1 with a chaperone and supervised by the study psychiatrist and lead therapist.
# Recording of adverse events and prior/concomitant medication was performed at each visit.
# During administration of psilocybin, each subject received one on one support from a trained assisting therapist and each dosing session was supervised by a study psychiatrist and a lead therapist. […]
smiles,measurement,value
CN(C)CCc1c[nH]c2cccc(OP(=O)(O)O)c12 [psilocybin],Any severe TEAE: % of subjects,(33.3) %
same,Any severe TEAE: Events,29
same,Any severe TEAE: N (%),10
same,"Emotional disorder, worst severity Mild: Events",1
same,"Emotional disorder, worst severity Moderate: Events",5
same,"Emotional disorder, worst severity Severe: Events",0
same,"Emotional disorder, worst severity Severe: N (%)",0
same,Emotional disorder: Events,6
same,"Euphoric mood, worst severity Mild: Events",3
same,"Euphoric mood, worst severity Mild: N (%)",3 (10.0)
same,"Euphoric mood, worst severity Moderate: Events",4
same,"Euphoric mood, worst severity Severe: Events",0
same,"Euphoric mood, worst severity Severe: N (%)",0
same,Euphoric mood: Events,8
same,"Fatigue, worst severity Mild: Events",3
same,"Fatigue, worst severity Mild: N (%)",3 (10.0)
same,"Fatigue, worst severity Moderate: Events",5
same,"Fatigue, worst severity Severe: Events",0
same,"Fatigue, worst severity Severe: N (%)",0
same,Fatigue: Events,8
same,"Feeling abnormal, worst severity Mild: Events",0
same,"Feeling abnormal, worst severity Mild: N (%)",0
same,"Feeling abnormal, worst severity Moderate: Events",0
same,"Feeling abnormal, worst severity Moderate: N (%)",0
same,"Feeling abnormal, worst severity Severe: Events",0
same,"Feeling abnormal, worst severity Severe: N (%)",0
same,Feeling abnormal: Events,0
same,Feeling abnormal: N (%),0
same,Feeling of relaxation: Events,1
same,"Gastrointestinal disorders, worst severity Mild: Events",4
same,"Gastrointestinal disorders, worst severity Moderate: Events",1
same,"Gastrointestinal disorders, worst severity Severe: Events",0
same,"Gastrointestinal disorders, worst severity Severe: N (%)",0
same,Gastrointestinal disorders: Events,5
same,"General disorders and administration site conditions, worst severity Mild: Events",8
same,"General disorders and administration site conditions, worst severity Moderate: Events",7
same,"General disorders and administration site conditions, worst severity Moderate: N (%)",6 (20.0)
same,"General disorders and administration site conditions, worst severity Severe: Events",1
same,General disorders and administration site conditions: Events,18
same,"Hallucination, auditory, worst severity Mild: Events",1
same,"Hallucination, auditory, worst severity Moderate: Events",3
same,"Hallucination, auditory, worst severity Moderate: N (%)",3 (10.0)
same,"Hallucination, auditory, worst severity Severe: Events",0
same,"Hallucination, auditory, worst severity Severe: N (%)",0
same,"Hallucination, auditory: Events",4
same,"Hallucination, tactile: Events",4
same,"Hallucination, visual, worst severity Mild: Events",3
same,"Hallucination, visual, worst severity Mild: N (%)",3 (10.0)
same,"Hallucination, visual, worst severity Moderate: Events",13
same,"Hallucination, visual, worst severity Severe: Events",5
same,"Hallucination, visual: Events",22
same,"Hallucination, worst severity Mild: Events",0
same,"Hallucination, worst severity Mild: N (%)",0
same,"Hallucination, worst severity Moderate: Events",2
same,"Hallucination, worst severity Severe: Events",0
same,"Hallucination, worst severity Severe: N (%)",0
same,Hallucination: Events,2
same,"Headache, worst severity Mild: Events",10
same,"Headache, worst severity Moderate: Events",5
same,"Headache, worst severity Severe: Events",0
same,"Headache, worst severity Severe: N (%)",0
same,Headache: Events,16
same,"Hypoaesthesia, worst severity Mild: Events",4
same,"Hypoaesthesia, worst severity Mild: N (%)",3 (10.0)
same,"Hypoaesthesia, worst severity Moderate: Events",0
same,"Hypoaesthesia, worst severity Moderate: N (%)",0
same,"Hypoaesthesia, worst severity Severe: Events",0
same,"Hypoaesthesia, worst severity Severe: N (%)",0
same,Hypoaesthesia: Events,4
same,Hypoaesthesia: N (%),3 (10.0)
same,"Illusion, worst severity Mild: Events",4
same,"Illusion, worst severity Mild: N (%)",3 (10.0)
same,"Illusion, worst severity Moderate: Events",12
same,"Illusion, worst severity Severe: Events",7
same,Illusion: Events,26
same,"Infections and infestations, worst severity Mild: Events",4
same,"Infections and infestations, worst severity Moderate: Events",0
same,"Infections and infestations, worst severity Moderate: N (%)",0
same,"Infections and infestations, worst severity Severe: Events",0
same,"Infections and infestations, worst severity Severe: N (%)",0
same,Infections and infestations: Events,4
same,"Investigations, worst severity Mild: Events",1
same,"Investigations, worst severity Moderate: Events",0
same,"Investigations, worst severity Moderate: N (%)",0
same,"Investigations, worst severity Severe: Events",0
same,"Investigations, worst severity Severe: N (%)",0
same,Investigations: Events,1
same,Mental fatigue: Events,3
same,Mental fatigue: N (%),3 (10.0)
same,"Mood altered, worst severity Mild: Events",3
same,"Mood altered, worst severity Moderate: Events",7
same,"Mood altered, worst severity Moderate: N (%)",6 (20.0)
same,"Mood altered, worst severity Severe: Events",9
same,Mood altered: Events,25
same,"Musculoskeletal and connective tissue disorders, worst severity Mild: Events",3
same,"Musculoskeletal and connective tissue disorders, worst severity Moderate: Events",1
same,"Musculoskeletal and connective tissue disorders, worst severity Severe: Events",0
same,"Musculoskeletal and connective tissue disorders, worst severity Severe: N (%)",0
same,Musculoskeletal and connective tissue disorders: Events,4
same,Musculoskeletal and connective tissue disorders: N (%),3 (10.0)
same,Nausea: Events,3
same,Nausea: N (%),3 (10.0)
same,"Nervous system disorders, worst severity Mild: Events",24
